Assay results published in patent publication US20230287048A1, “COMPOSITION AND KIT FOR REMOVING LIPOPOLYSACCHARIDE” (HLB SCIENCE INC., priority 2020, published 2023).
Where a SMILES comes first, the peptide text is derived from it. Where no end group is shown, it is not given here. [ ]: non-standard residue; d: D form.

Tests used:
[1] = Binding affinity (Kd) between peptide and LPS by isothermal titration calorimeter (ITC); settings: for Kd: 0.2 mM peptide in cell, 2 mM LPS in syringe, PBS, read-out: Kd (calculated by ITC)
Experimental: FP1 is denoted as wild type (WT), and peptides having point mutations for various parts in WT were prepared (FP3, FP5, FP6, and FP9). To increase the interaction with LPS in the residue sequence of FP3, peptides were designed based on an FP3 and LPS-binding model (FP12-NH2 and FP13-NH2), and non-natural amino acid and amino acid isomers (allomeric D-type amino acids) were additionally introduced, thereby designing peptides (allD FP12-NH2, allD FP13-NH2, allD FP-13-9a, allD FP-13-9w, allD FP-13-9k, and allD FP13-NH2 (AcOH)). In addition, an N-terminal PEGylated peptide (PEG-allD FP13-NH2(AcOH)) was additionally designed and synthesized by Anygen Co. Ltd., and then supplied. Using each of the provided peptides, lipopolysaccharide (LPS), and an isothermal titration calorimeter (ITC) for measuring binding affinity (Kd), binding affinity with LPS was confirmed.
Specifically, a method of analyzing binding affinity (Kd) between a peptide and LPS is as follows.
The binding affinity was measured using Malvern MicroCal PEAQ-ITC cell equipment, and to confirm the interaction with LPS, pre-treatment was performed as follows. The volume and shape of a cell sample were 300 μL, coin-shaped, and fixed-in-place; and the syringe rotation rate was 1,200 rpm; and temperatures were 30° C., 35° C., and 25° C.
Before the test, LPS and the peptide were diluted with PBS in advance, thereby obtaining 2 mM LPS and a 0.2 mM peptide. 300 μL of the peptide was put into cells in an ITC device, which had been washed, and 40 μL of LPS was contained in a syringe. Measurement conditions for ITC (temperature, the number of injections) were set, the syringe was inserted into the cell, and the ITC measurement began. When the measurement was completed, the Kd values of LPS and the peptide were calculated through analysis.

[2] = LPS removal rates of reagents prepared with various peptides; settings: for Removal Rate: peptide conjugated to CNBr-activated agarose
Experimental: To confirm an LPS removal rate by preparing a reagent for removing LPS using peptides other than FP12-NH2, LPS removal rates were compared using the peptides listed in Table 11.
Reagents for removing LPS were prepared in one dose by the method of Example 2-2 for each peptide.
More specifically, the reagent for removing LPS was aliquoted by Lot at 2 mL into 5 mL tubes. After centrifugation, the supernatant was removed with a syringe, 2 mL of PBS was added and mixed up and down and centrifuged. […] The mixture was stirred for 2 hours at room temperature. After centrifugation, the supernatant was transferred to a new tube.

LPS binding affinity compared with FP1 (wild type, WT) [1]	Kd [1] [µM]	Compound	Removal Rate ([2]; feeding LPS 10,000 EU/ml) [%]	Removal Rate ([2]; feeding LPS 100,000 EU/ml) [%]	LPS removal rate, comparison of all polypeptides ([2]; peptides of Table 11 conjugated to CNBr-activated agarose)
the same as or higher than FP1	118	KLRVKLRRYLR-NH2 [FP13-NH2, KLRVKLRRYLR-NH2]	94.8	–	–
the same as or higher than FP1	19.5	CC(C)C[C@@H](NC(=O)[C@H](N)CCCCN)C(=O)N[C@H](CCCNC(=N)N)C(=O)N[C@@H](C(=O)N[C@H](CCCCN)C(=O)N[C@H](CC(C)C)C(=O)N[C@H](CCCNC(=N)N)C(=O)N[C@H](CCCNC(=N)N)C(=O)N[C@H](Cc1ccc(O)cc1)C(=O)N[C@H](CC(C)C)C(=O)N[C@H](CCCNC(=N)N)C(N)=O)C(C)C [allD-FP-13-NH2 (AcOH), KLRVKLRRYLR-NH2] (H-[dK][dL][dR][dV][dK][dL][dR][dR][dY][dL][dR]-NH2; N-terminus assumed)	–	–	–
the same as or higher than FP1	0.242	RLRVKLRRYLR-NH2 [FP12-NH2, RLRVKLRRYLR-NH2]	99.9	79.4	the highest removal rate
the same as or higher than FP1	17.4	CC(C)C[C@@H](NC(=O)[C@H](N)CCCCN)C(=O)N[C@H](CCCNC(=N)N)C(=O)N[C@@H](C(=O)N[C@H](CCCCN)C(=O)N[C@H](CC(C)C)C(=O)N[C@H](CCCNC(=N)N)C(=O)N[C@H](CCCNC(=N)N)C(=O)N[C@H](Cc1c[nH]c2ccccc12)C(=O)N[C@H](CC(C)C)C(=O)N[C@H](CCCNC(=N)N)C(N)=O)C(C)C [allD-FP-13-9w-NH2, Klrvklrrwlr-NH2] (H-[dK][dL][dR][dV][dK][dL][dR][dR][dW][dL][dR]-NH2; N-terminus assumed)	–	–	–
the same as or higher than FP1	1.99	CC(C)C[C@@H](NC(=O)[C@H](N)CCCCN)C(=O)N[C@H](CCCNC(=N)N)C(=O)N[C@@H](C(=O)N[C@H](CCCCN)C(=O)N[C@H](CC(C)C)C(=O)N[C@H](CCCNC(=N)N)C(=O)N[C@H](CCCNC(=N)N)C(=O)N[C@H](CCCCN)C(=O)N[C@H](CC(C)C)C(=O)N[C@H](CCCNC(=N)N)C(N)=O)C(C)C [allD-FP-13-9k-NH2, Klrvklrrklr-NH2] (H-[dK][dL][dR][dV][dK][dL][dR][dR][dK][dL][dR]-NH2; N-terminus assumed)	–	–	–
the same as or higher than FP1	11.1	LRLGVELKRYLR [FP6, LRLGVELKRYLR]	–	–	–
the same as or higher than FP1	26.6	CC(C)C[C@@H](NC(=O)[C@H](N)CCCNC(=N)N)C(=O)N[C@H](CCCNC(=N)N)C(=O)N[C@@H](C(=O)N[C@H](CCCCN)C(=O)N[C@H](CC(C)C)C(=O)N[C@H](CCCNC(=N)N)C(=O)N[C@H](CCCNC(=N)N)C(=O)N[C@H](Cc1ccc(O)cc1)C(=O)N[C@H](CC(C)C)C(=O)N[C@H](CCCNC(=N)N)C(N)=O)C(C)C [allD FP12-NH2, RLRVKLRRYLR-NH2] (H-[dR][dL][dR][dV][dK][dL][dR][dR][dY][dL][dR]-NH2; N-terminus assumed)	–	58.6	–
the same as or higher than FP1	4.78	CC(C)C[C@@H](NC(=O)[C@H](N)CCCCN)C(=O)N[C@H](CCCNC(=N)N)C(=O)N[C@@H](C(=O)N[C@H](CCCCN)C(=O)N[C@H](CC(C)C)C(=O)N[C@H](CCCNC(=N)N)C(=O)N[C@H](CCCNC(=N)N)C(=O)N[C@H](Cc1ccc(O)cc1)C(=O)N[C@H](CC(C)C)C(=O)N[C@H](CCCNC(=N)N)C(N)=O)C(C)C [allD FP13-NH2, KLRVKLRRYLR-NH2] (H-[dK][dL][dR][dV][dK][dL][dR][dR][dY][dL][dR]-NH2; N-terminus assumed)	–	57.7	–

Compound	LPS binding affinity compared with FP1 (wild type, WT) [1]	Kd [1] [µM]	Removal Rate ([2]; feeding LPS 10,000 EU/ml) [%]	Removal Rate ([2]; feeding LPS 100,000 EU/ml) [%]	LPS removal rate, comparison of all polypeptides ([2]; peptides of Table 11 conjugated to CNBr-activated agarose)
KLGVEALRYLD [FP9, KLGVEALRYLD]	the same as or higher than FP1	326	–	–	–
LRLGVEAKRYLR [FP5, LRLGVEAKRYLR]	the same as or higher than FP1	854	–	–	–
KLGVEAKRYLD [FP1(WT), KLGVEAKRYLD, reference compound]	–	238	–	–	–
KLGVEAKRYLR [FP3, KLGVEAKRYLR]	the same as or higher than FP1	332	–	–	–
